Source: PubChem BioAssay AID2060912 (Molecular Pharmacology Branch, DTP, NCI, 2025)

Test system: HUVEC/MSC spheroids viability
Experiment: Human HUVEC/MSC cell line growth inhibition [KRAS2];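 on viability, T/C: percent of DMSO vehicle control luminescence so 100% = untreated viability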
Details: for IC50: curve of first compound; for viability, T/C: stronger effect = lower value
Method in brief: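 HUVEC + hMSC stromal spheroids only, no malignant cells; 37 °C, 5% CO2. Drugs singly and in pairs, half-log series down from clinical Cmax (max 10 microM if Cmax undetermined).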

[1] = second compound 0.00949 µM, first compound 0.0316 µM
[2] = second compound 0.00949 µM, first compound 0.1 µM
[3] = second compound 0.00949 µM, first compound 0.316 µM
[4] = second compound 0.00949 µM, first compound 1 µM
[5] = second compound 0.00949 µM, first compound 3.16 µM
[6] = second compound 0.00949 µM, first compound 10 µM
[7] = second compound 0.03 µM, first compound 0.0316 µM
[8] = second compound 0.03 µM, first compound 0.1 µM
[9] = second compound 0.03 µM, first compound 0.316 µM
[10] = second compound 0.03 µM, first compound 1 µM
[11] = second compound 0.03 µM, first compound 3.16 µM
[12] = second compound 0.03 µM, first compound 10 µM
[13] = second compound 0.0949 µM, first compound 0.0316 µM
[14] = second compound 0.0949 µM, first compound 0.1 µM
[15] = second compound 0.0949 µM, first compound 0.316 µM
[16] = second compound 0.0949 µM, first compound 1 µM
[17] = second compound 0.0949 µM, first compound 3.16 µM
[18] = second compound 0.0949 µM, first compound 10 µM
[19] = second compound 0.3 µM, first compound 0.0316 µM
[20] = second compound 0.3 µM, first compound 0.1 µM
[21] = second compound 0.3 µM, first compound 0.316 µM
[22] = second compound 0.3 µM, first compound 1 µM
[23] = second compound 0.3 µM, first compound 3.16 µM
[24] = second compound 0.3 µM, first compound 10 µM
[25] = second compound 0.949 µM, first compound 0.0316 µM
[26] = second compound 0.949 µM, first compound 0.1 µM
[27] = second compound 0.949 µM, first compound 0.316 µM
[28] = second compound 0.949 µM, first compound 1 µM
[29] = second compound 0.949 µM, first compound 3.16 µM
[30] = second compound 0.949 µM, first compound 10 µM
[31] = second compound 3 µM, first compound 0.0316 µM
[32] = second compound 3 µM, first compound 0.1 µM
[33] = second compound 3 µM, first compound 0.316 µM
[34] = second compound 3 µM, first compound 1 µM
[35] = second compound 3 µM, first compound 3.16 µM
[36] = second compound 3 µM, first compound 10 µM

CC(=O)Nc1cccc(-n2c(=O)n(C3CC3)c(=O)c3c(Nc4ccc(I)cc4F)n(C)c(=O)c(C)c32)c1 + C=CC(=O)N1CCN(c2nc(OCC3CCCN3C)nc3c2CCN(c2cccc4cccc(C)c24)C3)CC1CC#N
IC50 (second compound 0.00949 µM): 0.0189 µM
IC50 (second compound 0.03 µM): 0.0173 µM
IC50 (second compound 0.0949 µM): 0.0154 µM
IC50 (second compound 0.3 µM): 0.0134 µM
IC50 (second compound 0.949 µM): 0.0153 µM
IC50 (second compound 3 µM): 0.00185 µM
viability, T/C (second compound 0.00949 µM, first compound 94.9 pM): 95.3%
viability, T/C (second compound 0.00949 µM, first compound 0.0003 µM): 129%
viability, T/C (second compound 0.00949 µM, first compound 0.000949 µM): 125%
viability, T/C (second compound 0.00949 µM, first compound 0.003 µM): 116%
viability, T/C (second compound 0.00949 µM, first compound 0.00949 µM): 90.5%
viability, T/C (second compound 0.00949 µM, first compound 0.03 µM): 23%
viability, T/C (second compound 0.03 µM, first compound 94.9 pM): 104%
viability, T/C (second compound 0.03 µM, first compound 0.0003 µM): 116%
viability, T/C (second compound 0.03 µM, first compound 0.000949 µM): 112%
viability, T/C (second compound 0.03 µM, first compound 0.003 µM): 115%
viability, T/C (second compound 0.03 µM, first compound 0.00949 µM): 83.8%
viability, T/C (second compound 0.03 µM, first compound 0.03 µM): 18.9%
viability, T/C (second compound 0.0949 µM, first compound 94.9 pM): 97.7%
viability, T/C (second compound 0.0949 µM, first compound 0.0003 µM): 130%
viability, T/C (second compound 0.0949 µM, first compound 0.000949 µM): 133%
viability, T/C (second compound 0.0949 µM, first compound 0.003 µM): 94.9%
viability, T/C (second compound 0.0949 µM, first compound 0.00949 µM): 71.5%
viability, T/C (second compound 0.0949 µM, first compound 0.03 µM): 23.5%
viability, T/C (second compound 0.3 µM, first compound 94.9 pM): 67%
viability, T/C (second compound 0.3 µM, first compound 0.0003 µM): 98.3%
viability, T/C (second compound 0.3 µM, first compound 0.000949 µM): 114%
viability, T/C (second compound 0.3 µM, first compound 0.003 µM): 97.8%
viability, T/C (second compound 0.3 µM, first compound 0.00949 µM): 63.6%
viability, T/C (second compound 0.3 µM, first compound 0.03 µM): 18.6%
viability, T/C (second compound 0.949 µM, first compound 94.9 pM): 84.9%
viability, T/C (second compound 0.949 µM, first compound 0.0003 µM): 91.8%
viability, T/C (second compound 0.949 µM, first compound 0.000949 µM): 108%
viability, T/C (second compound 0.949 µM, first compound 0.003 µM): 86.7%
viability, T/C (second compound 0.949 µM, first compound 0.00949 µM): 73.4%
viability, T/C (second compound 0.949 µM, first compound 0.03 µM): 17.2%
viability, T/C (second compound 3 µM, first compound 94.9 pM): 96.2%
viability, T/C (second compound 3 µM, first compound 0.0003 µM): 105%
viability, T/C (second compound 3 µM, first compound 0.000949 µM): 73.8%
viability, T/C (second compound 3 µM, first compound 0.003 µM): 32.6%
viability, T/C (second compound 3 µM, first compound 0.00949 µM): 2.04%
viability, T/C (second compound 3 µM, first compound 0.03 µM): 1.27%

COc1cc(Nc2ncc3c(n2)-c2ccc(Cl)cc2C(c2c(F)cccc2OC)=NC3)ccc1C(=O)O + C=CC(=O)N1CCN(c2nc(OCC3CCCN3C)nc3c2CCN(c2cccc4cccc(C)c24)C3)CC1CC#N
IC50 (second compound 0.00949 µM): > 10 µM
IC50 (second compound 0.03 µM): > 10 µM
IC50 (second compound 0.0949 µM): > 10 µM
IC50 (second compound 0.3 µM): > 10 µM
IC50 (second compound 0.949 µM): 7.03 µM
IC50 (second compound 3 µM): 5.92 µM
viability, T/C [1]: 93.2%
viability, T/C [2]: 88%
viability, T/C [3]: 87.1%
viability, T/C [4]: 83.8%
viability, T/C [5]: 105%
viability, T/C [6]: 66.6%
viability, T/C [7]: 77.3%
viability, T/C [8]: 86.9%
viability, T/C [9]: 86%
viability, T/C [10]: 82.9%
viability, T/C [11]: 102%
viability, T/C [12]: 68.2%
viability, T/C [13]: 80.4%
viability, T/C [14]: 108%
viability, T/C [15]: 98.5%
viability, T/C [16]: 74.7%
viability, T/C [17]: 81.6%
viability, T/C [18]: 61.2%
viability, T/C [19]: 79.8%
viability, T/C [20]: 79.5%
viability, T/C [21]: 76.9%
viability, T/C [22]: 91.1%
viability, T/C [23]: 87.5%
viability, T/C [24]: 69%
viability, T/C [25]: 59.9%
viability, T/C [26]: 78.9%
viability, T/C [27]: 92.3%
viability, T/C [28]: 75.8%
viability, T/C [29]: 73.2%
viability, T/C [30]: 39.7%
viability, T/C [31]: 93.4%
viability, T/C [32]: 88.5%
viability, T/C [33]: 96.4%
viability, T/C [34]: 102%
viability, T/C [35]: 73.2%
viability, T/C [36]: 30.7%

COc1cc2nccc(Oc3ccc(NC(=O)C4(C(=O)Nc5ccc(F)cc5)CC4)cc3)c2cc1OC + C=CC(=O)N1CCN(c2nc(OCC3CCCN3C)nc3c2CCN(c2cccc4cccc(C)c24)C3)CC1CC#N
IC50 (second compound 0.00949 µM): 4.77 µM
IC50 (second compound 0.03 µM): 5.94 µM
IC50 (second compound 0.0949 µM): 8.74 µM
IC50 (second compound 0.3 µM): 7.29 µM
IC50 (second compound 0.949 µM): > 10 µM
IC50 (second compound 3 µM): 3.8 µM
viability, T/C [1]: 88.1%
viability, T/C [2]: 102%
viability, T/C [3]: 71.1%
viability, T/C [4]: 65.7%
viability, T/C [5]: 76.6%
viability, T/C [6]: 22%
viability, T/C [7]: 70.9%
viability, T/C [8]: 80.5%
viability, T/C [9]: 77.1%
viability, T/C [10]: 59.8%
viability, T/C [11]: 77.8%
viability, T/C [12]: 30.8%
viability, T/C [13]: 82.5%
viability, T/C [14]: 78.6%
viability, T/C [15]: 74%
viability, T/C [16]: 77.4%
viability, T/C [17]: 88.1%
viability, T/C [18]: 46%
viability, T/C [19]: 61.5%
viability, T/C [20]: 80.8%
viability, T/C [21]: 85.7%
viability, T/C [22]: 63.9%
viability, T/C [23]: 86.6%
viability, T/C [24]: 40.4%
viability, T/C [25]: 61.9%
viability, T/C [26]: 71.8%
viability, T/C [27]: 73.3%
viability, T/C [28]: 83%
viability, T/C [29]: 75.9%
viability, T/C [30]: 38.5%
viability, T/C [31]: 75.9%
viability, T/C [32]: 80.4%
viability, T/C [33]: 92.4%
viability, T/C [34]: 84.1%
viability, T/C [35]: 59.4%
viability, T/C [36]: 0.35%
